Test results taken from article PMC10709440, “High-throughput ligand profile characterization in novel cell lines expressing seven heterologous insect olfactory receptors for the detection of volatile plant biomarkers” (Scientific Reports, 2023).
Where two headings read alike, the source gives them in different places.

Assays:
[1] = biological target: T1, Drosophila OR10a (Drosophila melanogaster, UniProt Q9VYZ1); assay: Calcium ion fluorescence (GCaMP6) assay, OR10a stable HEK293 cell line; type: cell-based; conditions: for DF norm AVERAGE OR10a: threshold 0.05, below shown as 0; for OR10a response (VUAA1-normalized) at 1 μM / OR10a response (VUAA1-normalized) at 10 μM / OR10a response (VUAA1-normalized) at 100 μM: OR10a cell line; for OR10a response (VUAA1-normalized) at 1 μM: VOC concentration 1 μM; for OR10a response (VUAA1-normalized) at 10 μM: VOC concentration 10 μM; for OR10a response (VUAA1-normalized) at 100 μM: VOC concentration 100 μM
T1 construct: expressed in transfected cells
T1 sequence (Q9VYZ1 1-406): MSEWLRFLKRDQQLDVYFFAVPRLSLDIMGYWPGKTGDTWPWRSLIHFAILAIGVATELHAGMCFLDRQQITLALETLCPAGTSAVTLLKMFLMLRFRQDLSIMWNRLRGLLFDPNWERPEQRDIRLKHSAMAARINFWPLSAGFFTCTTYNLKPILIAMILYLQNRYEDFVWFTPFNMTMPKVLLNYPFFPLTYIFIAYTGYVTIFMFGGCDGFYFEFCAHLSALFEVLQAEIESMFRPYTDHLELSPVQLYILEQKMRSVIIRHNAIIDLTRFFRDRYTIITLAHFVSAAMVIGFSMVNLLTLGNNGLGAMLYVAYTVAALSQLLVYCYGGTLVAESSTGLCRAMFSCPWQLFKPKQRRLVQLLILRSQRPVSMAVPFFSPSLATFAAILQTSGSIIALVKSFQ
T1 sequence (Q9VNB5 1-486 partner): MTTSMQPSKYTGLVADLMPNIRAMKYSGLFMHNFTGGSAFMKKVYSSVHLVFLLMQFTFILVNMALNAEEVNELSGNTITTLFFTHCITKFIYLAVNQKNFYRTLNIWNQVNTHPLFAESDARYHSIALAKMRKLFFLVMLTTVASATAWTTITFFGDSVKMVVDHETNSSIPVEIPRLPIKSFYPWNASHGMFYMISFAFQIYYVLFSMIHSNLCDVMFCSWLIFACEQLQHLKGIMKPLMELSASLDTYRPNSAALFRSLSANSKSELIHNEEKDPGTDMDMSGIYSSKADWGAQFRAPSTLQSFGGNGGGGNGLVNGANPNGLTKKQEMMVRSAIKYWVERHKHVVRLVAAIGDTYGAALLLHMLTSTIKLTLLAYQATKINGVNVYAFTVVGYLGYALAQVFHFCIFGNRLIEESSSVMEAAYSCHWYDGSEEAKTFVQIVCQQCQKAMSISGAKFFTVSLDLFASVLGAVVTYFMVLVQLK
How it was run: (§1)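 HEK293 lines stably expressing each Drosophila OR with GCaMP6, doxycycline-induced (1 μg/mL) 48 or 72 h. Fluorescence recorded 5 s baseline then 30 s after VOC injection at pH 7.3; ΔF=(FMAX−F0)/F0, normalized to 50 µM VUAA1 response per line, triplicate wells averaged; concentration series 0.01–100 μM.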

[2] = biological target: T2, Drosophila OR71a (Drosophila melanogaster, UniProt Q9VUK5); assay: Calcium ion fluorescence (GCaMP6) assay, OR71a stable HEK293 cell line; type: cell-based; conditions: for activation at 1 µM / activation at 10 µM / activation at 100 µM: HEK293, read-out: OR71a response (VUAA1-normalized response); for Average response / OR71a response (VUAA1-normalized) at 1 μM / OR71a response (VUAA1-normalized) at 10 μM / OR71a response (VUAA1-normalized) at 100 μM: OR71a cell line; for Average response: VUAA1-normalized response, mean of biological replicates; for OR71a response (VUAA1-normalized) at 1 μM: VOC concentration 1 μM; for OR71a response (VUAA1-normalized) at 10 μM: VOC concentration 10 μM; for OR71a response (VUAA1-normalized) at 100 μM: VOC concentration 100 μM; for OR71a Average response (VUAA1-normalized): 50 μM VUAA1 = 1
T2 construct: expressed in transfected cells
T2 sequence (Q9VUK5 1-378): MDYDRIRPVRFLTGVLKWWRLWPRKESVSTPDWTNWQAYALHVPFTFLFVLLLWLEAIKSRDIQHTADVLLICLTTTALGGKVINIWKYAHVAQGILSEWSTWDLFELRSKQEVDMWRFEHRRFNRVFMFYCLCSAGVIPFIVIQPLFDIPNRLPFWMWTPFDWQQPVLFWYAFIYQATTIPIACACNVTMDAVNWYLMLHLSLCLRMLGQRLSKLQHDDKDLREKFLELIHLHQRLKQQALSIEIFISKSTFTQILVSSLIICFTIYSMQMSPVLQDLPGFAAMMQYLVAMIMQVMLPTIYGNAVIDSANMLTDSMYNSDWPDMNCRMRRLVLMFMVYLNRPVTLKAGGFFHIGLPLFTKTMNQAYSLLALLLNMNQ
T2 sequence (Q9VNB5 1-486 partner): T1 sequence (Q9VNB5 1-486 partner)
How it was run: as §1

[3] = HEK293, read-out: OR10a Average response (VUAA1-normalized), 1 μM VOC, 50 μM VUAA1 = 1, responses not exceeding 0.05 considered 0
[4] = HEK293, read-out: OR10a Average response (VUAA1-normalized), 10 μM VOC, 50 μM VUAA1 = 1, responses not exceeding 0.05 considered 0
[5] = HEK293, read-out: OR10a Average response (VUAA1-normalized), 100 μM VOC, 50 μM VUAA1 = 1, responses not exceeding 0.05 considered 0
[6] = HEK293, read-out: OR10a response (VUAA1-normalized response), VOC concentration 1 μM
[7] = HEK293, read-out: OR10a response (VUAA1-normalized response), VOC concentration 10 μM
[8] = HEK293, read-out: OR10a response (VUAA1-normalized response), VOC concentration 100 μM
[9] = ligand concentration 1 (unit not given)
[10] = ligand concentration 10 (unit not given)
[11] = ligand concentration 100 (unit not given)
[12] = ligand concentration 1 (unit not given), threshold 0.05, below shown as 0
[13] = ligand concentration 10 (unit not given), threshold 0.05, below shown as 0
[14] = ligand concentration 100 (unit not given), threshold 0.05, below shown as 0
[15] = HEK293, 1 μM VOC, 50 μM VUAA1 = 1, responses not exceeding 0.05 considered 0, read-out: OR10a Average response (VUAA1-normalized)
[16] = HEK293, 10 μM VOC, 50 μM VUAA1 = 1, responses not exceeding 0.05 considered 0, read-out: OR10a Average response (VUAA1-normalized)
[17] = HEK293, 100 μM VOC, 50 μM VUAA1 = 1, responses not exceeding 0.05 considered 0, read-out: OR10a Average response (VUAA1-normalized)

| SMILES | activation at 1 µM [1, 6] [%] | activation at 10 µM [1, 7] [%] | activation at 100 µM [1, 8] [%] | DF norm AVERAGE OR10a [1, 9] | DF norm AVERAGE OR10a [1, 10] | DF norm AVERAGE OR10a [1, 11] | activation at 1 µM [2] [%] | activation at 10 µM [2] [%] | activation at 100 µM [2] [%] | Average response ([2]; cc. 1 µM) | Average response ([2]; cc. 10 µM) | Average response ([2]; cc. 100 µM) | DF norm AVERAGE OR71a [2, 12] | DF norm AVERAGE OR71a [2, 13] | DF norm AVERAGE OR71a [2, 14] | activation at 1 µM [1, 15] [%] | activation at 10 µM [1, 16] [%] | activation at 100 µM [1, 17] [%] | also measured |
| --- | --- | --- | --- | --- | --- | --- | --- | --- | --- | --- | --- | --- | --- | --- | --- | --- | --- | --- | --- |
| CCCCOC(C)=O [butyl acetate] | 0 | 0 | 0 | 0 | 0 | 0 | 0 | 0 | 0 | 0.00 | 0.00 | 0.0132 | 0 | 0 | 0 |  |  |  | activation at 1 µM [1, 3]: 3%; activation at 10 µM [1, 4]: 0%; activation at 100 µM [1, 5]: 5% |
| CCCCCOC(C)=O [pentyl acetate] |  |  |  | 0.109 | 0.07718 | 0.3011 |  |  |  | 0.00 | 0.0163 | 0.09 | 0 | 0 | 0.08698 | 11 | 8 | 30 | OR10a response (VUAA1-normalized) at 1 μM [1]: 0.11; OR10a response (VUAA1-normalized) at 10 μM [1]: 0.08; OR10a response (VUAA1-normalized) at 100 μM [1]: 0.30; OR71a response (VUAA1-normalized) at 1 μM [2]: 0.00; OR71a response (VUAA1-normalized) at 10 μM [2]: 0.00; OR71a response (VUAA1-normalized) at 100 μM [2]: 0.09 |
| CCCCCC(C)O (stereo not drawn) [2-heptanol] | 0 | 7.54 | 0 |  |  |  | 0 | 0 | 16 | 0.00 | 0.04 | 0.16 |  |  |  | 3.76 | 7.54 | 0 | OR71a Average response (VUAA1-normalized) ([2]; 1 μM VOC): 0.00; OR71a Average response (VUAA1-normalized) ([2]; 10 μM VOC): 0.04; OR71a Average response (VUAA1-normalized) ([2]; 100 μM VOC): 0.16; DF norm AVERAGE OR71a ([2]; concentration 1, normalized fluorescence change, values below 0.05 threshold given as 0): 0; DF norm AVERAGE OR71a ([2]; concentration 10, normalized fluorescence change, values below 0.05 threshold given as 0): 0; DF norm AVERAGE OR71a ([2]; concentration 100, normalized fluorescence change, values below 0.05 threshold given as 0): 0.1631 |
| CCOC(=O)c1ccccc1 [ethyl benzoate] | 29 | 45 | 49 | 0.2908 | 0.4538 | 0.4934 | 0 | 5.54 | 11 | 0.04 | 0.0554 | 0.11 | 0 | 0.05543 | 0.1075 |  |  |  | activation at 1 µM [1, 3]: 29%; activation at 10 µM [1, 4]: 45%; activation at 100 µM [1, 5]: 49%; OR71a Average response (VUAA1-normalized) ([2]; 1 μM VOC): 0.04; OR71a Average response (VUAA1-normalized) ([2]; 10 μM VOC): 0.06; OR71a Average response (VUAA1-normalized) ([2]; 100 μM VOC): 0.11 |
| CCCCCCCCCC=O [decanal] | 0 | 0 | 0 | 0 | 0 | 0 | 0 | 0 | 0 | 0.00 | 0.00 | 0.0139 | 0 | 0 | 0 | 0 | 0 | 0 |  |
| CCCCCC(=O)OCC [ethyl hexanoate] | 6 | 0 | 8.51 | 0.06289 | 0 | 0.08508 | 0 | 0 | 0 | 0.0156 | 0.0153 | 0.00 | 0 | 0 | 0 | 6 | 3 | 8.51 |  |
| CC/C=C\CCOC(C)=O [Z-3-hexenyl acetate] |  |  |  |  |  |  |  |  |  |  |  |  |  |  |  |  |  |  | OR10a response (VUAA1-normalized) at 1 μM [1]: 0.14; OR10a response (VUAA1-normalized) at 10 μM [1]: 0.00; OR10a response (VUAA1-normalized) at 100 μM [1]: 0.00; OR71a response (VUAA1-normalized) at 1 μM [2]: 0.00; OR71a response (VUAA1-normalized) at 10 μM [2]: 0.00; OR71a response (VUAA1-normalized) at 100 μM [2]: 0.00 |
